Results as given in US20250281479A1, “TREATMENT OF CAVERNOUS ANGIOMAS WITH A 4-SUBSTITUTED PIPERIDINE DERIVATIVE” (Neurelis, Inc., priority 2024, published 2025).

Experiments:
[1] = nonclinical pharmacokinetics after a single oral dose; assay type: in vivo, mice, rats, and monkeys
Method: (§1) Exposure to NRL-2017 was similar or greater (up to 5-fold) than that to NRL-1049 in rats when dosed once a day (QD). In monkeys, exposure to NRL-2017 was also greater (up to 33-fold) than that to NRL-1049. When rats were dosed twice a day (BID) for 14 days, there was a decrease in formation of NRL-2017 with exposure to NRL-2017 lower than that of NRL-1049 (ratio as low as 0.06). […] NRL-1049 bound to human serum albumin and human alpha1-acid glycoprotein. […] There was also inhibition of P-glycoprotein (P-gp) (only CACO-2 cells), organic anion transporting polypeptides (OATP) OATP1B1, OATP1B3 and OAT3 (IC50, >100 μM), but no effect on P-gp (MDCK2 cells), breast cancer resistance protein (BCRP), bile salt export pump (BSEP), or MATE2-K. NRL-1049 is a substrate for P-gp, not BCRP. […] This conclusion will be revisited when human pharmacokinetic (PK) data becomes available.

[2] = nonclinical exposure to NRL-2017 versus NRL-1049 in rats; assay type: in vivo
Method: as §1

[3] = nonclinical exposure to NRL-2017 versus NRL-1049 in monkeys; assay type: in vivo
Method: as §1

[4] = tissue distribution and excretion; assay type: in vivo
Method: as §1

ROCK 2 = ROCK 2 (Homo sapiens, UniProt O75116); assay: ROCK 2 inhibition by metabolites; assay type: biochemical
[5] = first-in-human single ascending dose and food-effect study, plasma pharmacokinetics; assay type: in vivo; conditions: for Tmax: po; for Thalf: mean
Text: This was a first-in-human, single center, randomized, double-blind, placebo-controlled, single ascending dose (SAD) study, including a food-effect assessment, in healthy male and female subjects. Up to 44 subjects were included in the study.
The study consisted of 4 sequential cohorts of 8 subjects each (6 active and 2 placebo), randomly assigned to receive a single oral dose of NRL-1049 or matching-placebo under fasting state on Day 1 (See Table 2). In each cohort, a sentinel group of 2 subjects (1 active and 1 placebo) were dosed at least 24 hours prior to enrolling the remaining subjects of the cohort, contingent on the safety profile observed during sentinel dosing, as defined by medical judgment.
Subjects were admitted to the clinical research unit (CRU) on Day −1. On Day 1, following an overnight fast, subjects received a single oral dose of their assigned study treatment. Safety, PK, and exploratory biomarker assessments were performed prior to dosing and at assigned time points during study confinement. Subjects were permitted to leave the CRU following the completion of the 48-hour PK postdose sampling and safety assessments. A safety follow-up phone call was performed on Day 8 (±1 day).
Furthermore, a food-effect assessment was integrated into Cohort 3, in which a single oral 150 mg dose of NRL-1049 or placebo was administered to 12 subjects (10 active and 2 placebo) under fed state in Period 2 (refer to schedule of food-effect Cohort 3 in Table 3). After completion of Period 1 and a washout period of at least 14 days, Cohort 3 subjects repeated the screening procedures to ensure they still met the inclusion and exclusion criteria prior to readmission to the CRU for Period 2. Subjects dosed in Period 1 and who returned for Period 2 (a maximum of 6 active and 2 placebo) were administered the same single oral dose in Period 2 under fed state. In addition, at least 4 new subjects were enrolled in Period 2 only, in order to dose a total of 12 subjects (10 active and 2 placebo), in a 1:1 ratio of male to female. If a subject dosed in Period 1 was unable to return for Period 2, a new subject was enrolled to ensure dosing a total of 12 subjects in Period 2. Newly enrolled subjects only received the study drug in the fed state, and as such were not required to undergo Period 1 activities. There was no sentinel approach in Period 2.
Study drugs (NRL-1049 or placebo) were administered in the morning. The date and time of each dose was recorded. For each subject, all scheduled postdose activities and assessments were performed relative to the time of study drug administration. An oral dose of the assigned formulation was administered to subjects with approximately 240 mL of water at ambient temperature. The capsule(s) were swallowed whole and not chewed or broken. Food and fluid intake other than water were controlled for each confinement period and all subjects. In Cohorts 1, 2, 3 (Period 1), and 4, water was permitted as needed except from 1 hour predose until 1 hour after dosing. In Period 2 of Cohort 3, water was permitted as needed throughout the confinement period. For cohorts under fasting state, subjects were required to fast (abstain from food) for at least 10 hours prior to dosing and for at least 4 hours following dosing. In Period 2 of the food-effect cohort only, following an overnight fast of at least 10 hours, subjects received a standardized high-fat, high-calorie meal 30 minutes prior to study drug administration. An example meal would consist of 2 eggs fried in butter, 2 strips of bacon, 2 slices of toast with butter, 4 ounces of hash brown potatoes, and 8 ounces of whole milk. […] Subjects had to eat the total content of this meal in 30 minutes or less. For all cohorts, a standardized lunch was served at least 4 hours after dosing. A supper, light snack, and other meals were served at appropriate times thereafter, but not until after 9 hours postdose. […]

[6] = 150 mg NRL-1049, fed compared to fasting state
[7] = 25 to 250 mg NRL-1049, fasting conditions

Chain of ROCK 2 (O75116 whole entry, species assumed): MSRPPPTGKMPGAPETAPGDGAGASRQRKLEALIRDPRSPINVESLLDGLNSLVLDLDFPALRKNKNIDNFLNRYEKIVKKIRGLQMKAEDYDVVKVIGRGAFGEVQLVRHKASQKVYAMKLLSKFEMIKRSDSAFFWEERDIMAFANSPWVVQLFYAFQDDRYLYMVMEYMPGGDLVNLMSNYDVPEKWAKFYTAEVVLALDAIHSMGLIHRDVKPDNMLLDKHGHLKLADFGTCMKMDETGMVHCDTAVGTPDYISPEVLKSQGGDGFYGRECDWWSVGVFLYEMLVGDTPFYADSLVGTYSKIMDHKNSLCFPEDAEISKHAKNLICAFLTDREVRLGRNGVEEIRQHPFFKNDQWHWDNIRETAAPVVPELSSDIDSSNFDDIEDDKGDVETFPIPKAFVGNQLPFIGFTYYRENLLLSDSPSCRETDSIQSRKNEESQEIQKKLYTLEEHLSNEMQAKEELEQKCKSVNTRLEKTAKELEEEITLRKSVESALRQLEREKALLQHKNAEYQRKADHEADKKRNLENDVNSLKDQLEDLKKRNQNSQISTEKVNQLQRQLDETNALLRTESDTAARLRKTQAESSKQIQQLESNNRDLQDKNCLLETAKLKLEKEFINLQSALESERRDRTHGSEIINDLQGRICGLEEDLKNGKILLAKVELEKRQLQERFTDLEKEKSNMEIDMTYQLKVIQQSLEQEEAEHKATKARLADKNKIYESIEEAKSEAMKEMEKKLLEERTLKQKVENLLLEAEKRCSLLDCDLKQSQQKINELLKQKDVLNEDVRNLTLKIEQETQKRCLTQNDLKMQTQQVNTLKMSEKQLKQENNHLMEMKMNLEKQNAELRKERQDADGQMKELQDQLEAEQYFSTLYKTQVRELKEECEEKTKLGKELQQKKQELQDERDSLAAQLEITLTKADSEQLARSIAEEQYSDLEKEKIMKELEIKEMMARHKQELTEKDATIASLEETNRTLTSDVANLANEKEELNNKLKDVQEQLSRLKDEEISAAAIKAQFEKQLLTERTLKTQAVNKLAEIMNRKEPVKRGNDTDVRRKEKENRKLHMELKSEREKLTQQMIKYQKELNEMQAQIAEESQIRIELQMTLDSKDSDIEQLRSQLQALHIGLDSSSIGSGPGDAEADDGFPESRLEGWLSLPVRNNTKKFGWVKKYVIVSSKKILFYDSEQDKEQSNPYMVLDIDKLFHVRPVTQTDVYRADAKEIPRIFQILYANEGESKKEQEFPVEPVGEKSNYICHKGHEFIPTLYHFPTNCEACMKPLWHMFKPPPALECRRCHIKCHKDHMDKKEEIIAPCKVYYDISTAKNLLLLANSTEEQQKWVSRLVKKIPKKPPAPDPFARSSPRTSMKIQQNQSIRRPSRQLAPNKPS

- exposure versus dose ([1]; in vivo): greater than dose-proportional
- half-life ([1]; mouse, rat, monkey, plasma, single oral dose of NRL-1049, range over mice, rats, and monkeys, read-out: elimination phase half-life (t½)): 0.58 to 5.7 h
- Tmax ([1]; mouse, rat, monkey, plasma, single oral dose of NRL-1049, range over mice, rats, and monkeys, read-out: time to maximum plasma concentration (Tmax)): 0.5 to 4 h
- exposure to NRL-2017 relative to NRL-1049 ([2]; rats dosed once a day (QD), similar or greater): up to 5 fold
- exposure ratio NRL-2017 to NRL-1049 ([2]; rats dosed twice a day (BID) for 14 days): ≥ 0.06
- exposure to NRL-2017 relative to NRL-1049 [3]: up to 33 fold
- tissue distribution ([4]; brain, aorta, inferior vena cava): distributed to brain and vascular tissue
- excretion ([4]; in vivo): excreted in urine
- ROCK 2 inhibition (ROCK 2): potent ROCK 2 inhibitor
- food effect on mean AUC0-T and AUCinf [5, 6]: remained consistent
- food effect on mean Cmax [5, 6]: decreased
- food effect on mean elimination half-life [5, 6]: remained consistent
- manner of increase of AUC0-T with dose [5, 7]: greater than dose proportional
- manner of increase of AUC0-Tmax with dose [5, 7]: dose proportional
- manner of increase of AUCinf with dose [5, 7]: greater than dose proportional
- manner of increase of Cmax with dose [5, 7]: greater than dose proportional
- time up to which mean concentrations were quantifiable ([5]; all dose levels of 25 to 250 mg NRL-1049 fasting and 150 mg fed): up to 48 hours
- AUC(0-t) ([5]; both sexes, human, plasma, oral, range over dose range 25 to 250 mg NRL-1049, fasting state, read-out: mean AUC0-T): 478 to 6690 ng·h/mL
- AUC ([5]; both sexes, human, plasma, oral, range over dose range 25 to 250 mg NRL-1049, fasting state, read-out: mean AUC0-Tmax): 35.6 to 457 ng·h/mL
- AUC(0-inf) ([5]; both sexes, human, plasma, oral, range over dose range 25 to 250 mg NRL-1049, fasting state, read-out: mean AUCinf): 546 to 7040 ng·h/mL
- Cmax ([5]; both sexes, human, plasma, oral, range over dose range 25 to 250 mg NRL-1049, fasting state, read-out: mean Cmax): 54.2 to 1520 ng/mL
- half-life ([5]; both sexes, human, plasma, oral, range over the dose groups 25 to 250 mg NRL-1049, fasting state, read-out: mean elimination half-life): 12.3 to 17.3 h
- Tmax ([5]; both sexes, human, plasma, 150 mg, plasma metabolite NRL-2017, median, 150 mg NRL-1049 single oral, Fasted, Cohort 3, N = 6, read-out: Tmax): 1.13 h
- Tmax ([5]; both sexes, human, plasma, 150 mg, plasma metabolite NRL-2017, median, 150 mg NRL-1049 single oral, Fed, Cohort 3, N = 10, read-out: Tmax): 1.75 h
- Tmax ([5]; both sexes, human, plasma, range over single oral doses of 25 to 250 mg NRL-1049, fasting state, read-out: median time to maximum observed plasma concentration (Tmax)): 0.88 to 1.63 h
- Thalf ([5]; plasma metabolite NRL-2017, 150 mg NRL-1049 single oral, Fasted, Cohort 3, N = 6): 12.28 h
- Thalf ([5]; plasma metabolite NRL-2017, 150 mg NRL-1049 single oral, Fed, Cohort 3, N = 10): 12.37 h
SMILES: C[C@@H](N)C1CCN(S(=O)(=O)c2cccc3c(O)nccc23)CC1 [NRL-2017, 1-hydroxy NRL-1049]
